Experimental data reported in patent US20260285903A1, “SYNTHESIZED BIOLOGICALLY ACTIVE COMPOUNDS AND METHODS OF MAKING AND USING” (Georgia State University Research Foundation, Inc., priority 2023, published 2026).
Entries after “also recorded” stand apart in the source; their conditions may differ. Read-outs that look alike come from different tables or passages of the source.

Key:
[1] = system: normal lung cells (IMR-90); settings: cited from earlier work
tester TA100 = assay: Ames test (bacterial reverse mutation), strain TA100; type: cell-based, Salmonella typhimurium; settings: TA100, all tested concentrations
Experimental: The mutagenic potential of M13 was assessed using the Ames test. The Ames test, or bacterial reverse mutation test, introduced by Bruce Ames and his group in the early 1970s, is currently widely employed to assess the mutagenic potential of chemical compounds. In this biological assay, several strains of Salmonella ryphimurium carrying mutations in genes responsible for histidine synthesis are used, so these strains cannot produce this critical amino acid. […]
M13 at concentrations of […] and positive (NaN3; 2-nitrofluorene (NF) and 2-amonoanthracene) and negative (PBS) controls were tested on two tester strains; TA98 reverted from histidine dependence (auxotrophy) to histidine independence (prototrophy) by frameshift mutagens and tester TA100 reverted by mutagens that cause both frameshift and base pair substitution mutations. The colony numbers on the negative, positive control and M13 treated plates were determined by manual counting. The mean number of revertants per plate, the standard deviation, and the mutation factor (i.e., mean number of revertants on the test item plate/mean number of revertants on the vehicle plate) were calculated.
Next, the mutagenic potential of M13 using a Salmonella typhimurium reverse mutation assay were assessed (Ames test). […]

25 selected targets = assay: In vitro evaluation of safety and toxicity (InVEST) screening
Experimental: Safety screening of M13 was performed using an in vitro evaluation of safety and toxicity (InVEST). The effects of M13 was tested against 25 selected targets, including factors known to be involved in toxicity in humans.

cancer-related proteins = assay: Proteome Profiler Human XL Oncology Array on Caco-2/BBe cell lysates; type: cell-based; settings: 24 hours
Experimental: The mechanism by which M13 exerts its anti-cancer effects was explored. Cell lysates of Caco-2/BBe cells incubated for 24 hours with free M13, NL, or M13-NL were hybridized on cancer-related protein array membranes (Proteome Profiler™ Human XL Oncology Array), and cell cycle control/phosphorylation profiling protein antibody microarray slides (Cell Cycle Control Phospho Antibody Array).

[2] = system: lung cancer cells (H-1299); settings: cited from earlier work
[3] = pKa by UV metric at pH 2 to pH 12; type: physicochemical
From the text: The pKa of a drug influences lipophilicity, solubility, protein binding, and permeability, which in turn directly affects pharmacokinetic (PK) characteristics such as absorption, distribution, metabolism, and excretion.
(§1) The biopharmaceutical properties of the synthesized M13 (5-glutathione-6-shogaol) were characterized.

human T lymphocytes = assay: Immunogenic effects on T lymphocytes in cultured PBMCs (flow cytometry); type: cell-based; settings: 20 μM, 4-day, vs SC and standard control
Experimental: (§2) PBMCs were provided by STEMCELL Technologies (STEMCELL Canada Inc.) and maintained in ImmunoCult™-XF T-cell Expansion Medium (Cat #10981). HIEC-6 cells were maintained in OptiMEM 1 Reduced Serum Medium supplemented with 20 mM HEPES, 10 mM GlutaMAX, 10 ng/mL Epidermal Growth Factor, 4% (v/v) fetal bovine serum (FBS), and 1% penicillin-streptomycin (PS). HCT-116 cells were maintained in ATCC-formulated McCoy's 5a medium, supplemented with 10% (v/v) FBS and 1% PS. Caco-2/BBe cells were grown in DMEM supplemented with 10% (v/v) FBS and 1% PS (v/v). Human colon cancer stem cells (HC-CSC) were maintained in complete growth media with serum and antibiotics (Cat #M36112-39S) from Celprogen Inc. (Torrance, CA, USA).
To evaluate the immunogenic effects of M13 on human T lymphocytes, PBMCs were cultured in blank medium (standard control), medium containing CD3/CD28 activator (positive control), medium containing solvent (solvent control, SC), and medium containing M13 solution (20 μM). All the groups were cultured in the presence or absence of interleukin-2 (IL-2). After a 4-day incubation, PBMCs were labeled with immunofluorescent dyes and analyzed using flow cytometry.

Caco-2/BBe cells = assay: MTT viability assay, 2D culture; type: cell-based, human
Experimental: as §2
(§3) The […] (MTT) assay was used to study the effects of M13 on the viability of four 2D-cultured human intestinal cell lines (HIEC-6, HCT-116, Caco-2/BBe, and HC-CSC).
Next, the anti-cancer activities of free M13, NL, and M13-NL were compared against Caco-2/BBe cells.

HIEC-6 cells = assay: MTT viability assay, 2D culture; type: cell-based; settings: Homo sapiens
Experimental: as §2, §3

Kinetic solubility = type: physicochemical
From the text: The main reason for failure in drug development is poor biopharmaceutical properties, which include low aqueous solubility, chemical instability.
as §1

[4] = system: human normal colon fibroblast cells (CCD-18Co); settings: cited from earlier work

In the case of `CCCCCC(CC(=O)CCc1ccc(O)c(OC)c1)SCC(NC(=O)CCC(N)C(=O)O)C(=O)NCC(=O)O` (stereo not shown) [M13, 5-glutathione-6-shogaol], the toxicity [1] is given as “low toxicity”, the revertant colony numbers (tester TA100) is given as “did not demonstrate an increase in revertant colony numbers; also recorded: did not increase the number of revertant colonies” and the “effect on the activities of 25 assorted targets from five target classes” value (25 selected targets) is given as “did not have any significant effect”. For the same compound, the “inhibition of GPCR targets, ion channel (5-HT3), phosphodiesterase, protease thrombin alpha” value (25 selected targets) was “did not inhibit”, the “modulation of the activity of the nuclear receptor AHR” value (25 selected targets) was “did not significantly modulate” and the “22 cancer-related proteins, expression vs control group” value (cancer-related proteins) was “significantly down-regulated”. The bioactivity [2] was “exhibited bioactivity”, the pKa ([3]; read-out: pKa1) was 3.24 and the pKa ([3]; read-out: pKa2) was 9.12. For the same compound, the pKa ([3]; read-out: pKa3) was 10.4, the “proliferation of activated CD4+ and CD8+ lymphocytes” value (human T lymphocytes; activated-stage (with IL-2)) was “reduced proliferation” and the “percentages of CD4+ and CD8+ T-cell populations and T-cell proliferation status” value (human T lymphocytes; resting-stage (without IL-2)) was “similar”. For the same compound, the “fold by which IC50 against HIEC-6 is higher” value (Caco-2/BBe cells; HIEC-6 vs Caco-2/BBe) was 6 fold, the IC50 (Caco-2/BBe cells; Homo sapiens, Caco-2, 24 h) was 16.7 µM and the IC50 (HIEC-6 cells; HIEC-6) was > 100 µM. For the same compound, the IC50 (HIEC-6 cells; HIEC-6, 24 h) was > 100 µM, the solubility kinetic (Kinetic solubility; Example 1) was > 200 µM and the solubility kinetic (Kinetic solubility; as printed in Example 6) was > 200 µM. The toxicity [4] was “low toxicity”.
